Tests used:
MGLL = molecular target: T1, MGLL (Mus musculus, UniProt O35678); test: In vitro competitive activity-based protein profiling, mouse brain proteome (MGLL); type: biochemical; settings: concentration not given (μM)
T1 construct: Brain; from tissue; host or cells: mouse brain proteome
T1 sequence (O35678 1-303): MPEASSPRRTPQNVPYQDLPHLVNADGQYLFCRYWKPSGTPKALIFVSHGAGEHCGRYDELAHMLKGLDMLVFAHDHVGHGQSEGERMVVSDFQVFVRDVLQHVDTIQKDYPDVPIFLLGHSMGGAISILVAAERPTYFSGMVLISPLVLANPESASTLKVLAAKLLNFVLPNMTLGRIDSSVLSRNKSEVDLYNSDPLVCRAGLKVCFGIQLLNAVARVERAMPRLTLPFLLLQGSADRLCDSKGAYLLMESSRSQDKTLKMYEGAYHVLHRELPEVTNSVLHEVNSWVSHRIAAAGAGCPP

ABHD6 = molecular target: T2, ABHD6 (Mus musculus, UniProt Q8R2Y0); test: In vitro competitive activity-based protein profiling, mouse brain proteome (ABHD6); type: biochemical; settings: mouse brain proteome; concentration not given (μM)
T2 construct: Brain; from tissue; host or cells: mouse brain proteome
T2 sequence (Q8R2Y0 1-336): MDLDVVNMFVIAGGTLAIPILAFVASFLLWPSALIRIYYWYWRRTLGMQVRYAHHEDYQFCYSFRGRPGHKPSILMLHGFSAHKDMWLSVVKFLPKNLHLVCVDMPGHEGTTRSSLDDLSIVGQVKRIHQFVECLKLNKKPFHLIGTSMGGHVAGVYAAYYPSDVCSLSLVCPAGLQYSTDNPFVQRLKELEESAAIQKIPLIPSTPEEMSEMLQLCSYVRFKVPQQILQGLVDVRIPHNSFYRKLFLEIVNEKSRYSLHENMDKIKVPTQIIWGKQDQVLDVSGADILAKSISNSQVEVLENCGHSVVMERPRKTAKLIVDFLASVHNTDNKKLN
Description: [The source words this procedure for another target and reports this target under the same test.] In Vitro Competitive Activity-Based Protein Profiling.
Proteomes (human prefrontal cortex or cell membrane fractions) (50 μL, 1.0 mg/mL total protein concentration) were preincubated with varying concentrations of inhibitors at 37° C. After 30 min, FP-Rh or HT-01 (1.0 μL, 50 μM in DMSO) was added and the mixture was incubated for another 30 min at room temperature. Reactions were quenched with SDS loading buffer (15 μL-4×) and run on SDS-PAGE.

| SMILES | % Inh MGLL Brain (Mouse, μM) (MGLL) | % Inh ABHD6 Brain (Mouse, μM) (ABHD6) |
| --- | --- | --- |
| Cc1cc(-c2ccccc2)ccc1CN1CC2(CCN(C(=O)OC(C(F)(F)F)C(F)(F)F)CC2)C1 [Example 68, 1,1,1,3,3,3-Hexafluoropropan-2-yl 2-((3-methyl-[1,1'-biphenyl]-4-yl)methyl)-2,7-diazaspiro[3,5]nonane-7-carboxylate] | ### (### is ≥75%) | ### (### is ≥75%) |
| O=C(OC(C(F)(F)F)C(F)(F)F)N1CCC2(CC1)CN(Cc1ccc(C(F)(F)F)cc1)C2 [Example 69, 1,1,1,3,3,3-Hexafluoropropan-2-yl 2-(4-(trifluoromethyl)benzyl)-2,7-diazaspiro[3,5]nonane-7-carboxylate] | ### (### is ≥75%) | ### (### is ≥75%) |
| O=C(OC(C(F)(F)F)C(F)(F)F)N1CC2(CCN(Cc3ccc(N4CCOCC4)cc3Cl)CC2)C1 [Example 70, 1,1,1,3,3,3-Hexafluoropropan-2-yl 7-(2-chloro-4-morpholinobenzyl)-2,7-diazaspiro[3.5]nonane-2-carboxylate] | ### (### is ≥75%) | ### (### is ≥75%) |
| Cc1cc(N2CCOCC2)ccc1CN1CCC2(CC1)CN(C(=O)OC(C(F)(F)F)C(F)(F)F)C2 [Example 71, 1,1,1,3,3,3-Hexafluoropropan-2-yl 7-(2-methyl-4-morpholinobenzyl)-2,7-diazaspiro[3.5]nonane-2-carboxylate] | ### (### is ≥75%) | ### (### is ≥75%) |
| CN(Cc1ccc(C(F)(F)F)cc1N1CCCC1)C1(C)CCN(C(=O)OC(C(F)(F)F)C(F)(F)F)CC1 [Example 72, 1,1,1,3,3,3-Hexafluoropropan-2-yl 4-methyl-4-(methyl(2-(pyrrolidin-1-yl)-4-(trifluoromethyl)benzyl)amino) piperidine-1-carboxylate] | ### (### is ≥75%) | # (# is ≤25%) |
| O=C(OC(C(F)(F)F)C(F)(F)F)N1CCC2(CC1)CN(Cc1ccc(CN3CCOCC3)cc1)C2 [Example 73, 1,1,1,3,3,3-Hexafluoropropan-2-yl 2-(4-(morpholinomethyl)benzyl)-2,7-diazaspiro[3.5]nonane-7-carboxylate] | ### (### is ≥75%) | ### (### is ≥75%) |
| O=C(O)C1CCN(c2ccc(CN3CC4(CCN(C(=O)OC(C(F)(F)F)C(F)(F)F)CC4)C3)cc2)CC1 [Example 74, 1-(4-((7-(((1,1,1,3,3,3-Hexafluoropropan-2-yl)oxy)carbonyl)-2,7-diazaspiro[3.5]nonan-2-yl)methyl)phenyl)piperidine-4-carboxylic acid] | # (# is ≤25%) | ### (### is ≥75%) |
| O=C(OC(C(F)(F)F)C(F)(F)F)N1CC2(CCN(Cc3ccc(Cl)cc3)CC2)C1 [Example 75, 1,1,1,3,3,3-Hexafluoropropan-2-yl 7-(4-chlorobenzyl)-2,7-diazaspiro[3.5]nonane-2-carboxylate] | ### (### is ≥75%) | ### (### is ≥75%) |
| CN(Cc1cc(N2CCCC2)cc(C(F)(F)F)c1)C1(C)CCN(C(=O)OC(C(F)(F)F)C(F)(F)F)CC1 [Example 76, 1,1,1,3,3,3-Hexafluoropropan-2-yl 4-methyl-4-(methyl(3-(pyrrolidin-1-yl)-5-(trifluoromethyl)bcnzyl)amino) piperidine-1-carboxylate] | ### (### is ≥75%) | # (# is ≤25%) |
| O=C(OC(C(F)(F)F)C(F)(F)F)N1CC2(CCN(Cc3cccc(N4CCCC4)c3)CC2)C1 [Example 77, 1,1,1,3,3,3-Hexafluoropropan-2-yl 7-(3-(pyrrolidin-1-yl)benzyl)-2,7-diazaspiro[3.5]nonane-2-carboxylate] | ## (## is between 25 and 75%) | ### (### is ≥75%) |
| O=C(OC(C(F)(F)F)C(F)(F)F)N1CCC2(CC1)CN(Cc1cccc(Oc3ccccc3)c1)C2 [Example 78, 1,1,1,3,3,3-Hexafluoropropan-2-yl 2-(3-phenoxybenzyl)-2,7-diazaspiro[3.5]nonane-7-carboxylate] | ### (### is ≥75%) | ### (### is ≥75%) |
| O=C(OC(C(F)(F)F)C(F)(F)F)N1CCC2(CC1)CN(Cc1ccc(N3CCOCC3)cc1Cl)C2 [Example 79, 1,1,1,3,3,3-Hexafluoropropan-2-yl 2-(2-chloro-4-morpholinobenzyl)-2,7-diazaspiro[3.5]nonane-7-carboxylate] | ### (### is ≥75%) | ### (### is ≥75%) |

Results, then the compound that gave them:

| % Inh MGLL Brain (Mouse, μM) (MGLL) | % Inh ABHD6 Brain (Mouse, μM) (ABHD6) | SMILES |
| --- | --- | --- |
| ### (### is ≥75%) | # (# is ≤25%) | O=C(OC(C(F)(F)F)C(F)(F)F)N1CCC2(CC1)CN(Cc1ccc(N3CCCC3)cc1)C2 [Example 80, 1,1,1,3,3,3-Hexafluoropropan-2-yl 2-(4-(pyrrolidin-1-yl)benzyl)-2,7-diazaspiro[3.5]nonane-7-carboxylate] |
| ### (### is ≥75%) | ### (### is ≥75%) | O=C(OC(C(F)(F)F)C(F)(F)F)N1CCC2(CC1)CN(Cc1ccc(N3CCOCC3)cc1)C2 [Example 81, 1,1,1,3,3,3-Hexafluoropropan-2-yl 2-(4-morpholinobenzyl)-2,7-diazaspiro[3.5]nonane-7-carboxylate] |
| ### (### is ≥75%) | ### (### is ≥75%) | Cc1cc(N2CCOCC2)ccc1CN1CC2(CCN(C(=O)OC(C(F)(F)F)C(F)(F)F)CC2)C1 [Example 82, 1,1,1,3,3,3-Hexafluoropropan-2-yl 2-(2-methyl-4-morpholinobenzyl)-2,7-diazaspiro[3.5]nonane-7-carboxylate] |
| ### (### is ≥75%) | ### (### is ≥75%) | Cc1ccc(CN2CC3(CCN(C(=O)OC(C(F)(F)F)C(F)(F)F)CC3)C2)cc1 [Example 84, 1,1,1,3,3,3-Hexafluoropropan-2-yl 2-(4-methylbenzyl)-2,7-diazaspiro[3.5]nonane-7-carboxylate] |
| ### (### is ≥75%) | ### (### is ≥75%) | COc1ccc(CN2CC3(CCN(C(=O)OC(C(F)(F)F)C(F)(F)F)CC3)C2)cc1 [Example 85, 1,1,1,3,3,3-Hexafluoropropan-2-yl 2-(4-methoxybenzyl)-2,7-diazaspiro[3.5]nonane-7-carboxylate] |
| ### (### is ≥75%) | ### (### is ≥75%) | Cc1cccc(CN2CC3(CCN(C(=O)OC(C(F)(F)F)C(F)(F)F)CC3)C2)c1 [Example 86, 1,1,1,3,3,3-Hexafluoropropan-2-yl 2-(3-methylbenzyl)-2,7-diazaspiro[3.5]nonane-7-carboxylate] |
| ### (### is ≥75%) | ### (### is ≥75%) | COc1cccc(CN2CC3(CCN(C(=O)OC(C(F)(F)F)C(F)(F)F)CC3)C2)c1 [Example 87, 1,1,1,3,3,3-Hexafluoropropan-2-yl 2-(3-methoxybenzyl)-2,7-diazaspiro[3.5]nonane-7-carboxylate] |
| ### (### is ≥75%) | ### (### is ≥75%) | O=C(OC(C(F)(F)F)C(F)(F)F)N1CCC2(CC1)CN(Cc1ccccc1N1CCCC1)C2 [Example 88, 1,1,1,3,3,3-Hexafluoropropan-2-yl 2-(2-(pyrrolidin-1-yl)benzyl)-2,7-diazaspiro[3.5]nonane-7-carboxylate] |
| ### (### is ≥75%) | ### (### is ≥75%) | O=C(OC(C(F)(F)F)C(F)(F)F)N1CCC2(CC1)CN(Cc1cccc(C(F)(F)F)c1)C2 [Example 89, 1,1,1,3,3,3-Hexafluoropropan-2-yl 2-(3-(trifluoromethyl)benzyl)-2,7-diazaspiro[3.5]nonane-7-carboxylate] |
| ### (### is ≥75%) | ### (### is ≥75%) | O=C(OC(C(F)(F)F)C(F)(F)F)N1CCC2(CC1)CN(Cc1cccc(N3CCOCC3)c1)C2 [Example 90, 1,1,1,3,3,3-Hexafluoropropan-2-yl 2-(3-morpholinobenzyl)-2,7-diazaspiro[3,5]nonane-7-carboxylate] |
| ### (### is ≥75%) | ### (### is ≥75%) | Cc1ccccc1CN1CC2(CCN(C(=O)OC(C(F)(F)F)C(F)(F)F)CC2)C1 [Example 91, 1,1,1,3,3,3-Hexafluoropropan-2-yl 2-(2-methylbenzyl)-2,7-diazaspiro[3.5]nonane-7-carboxylate] |
| ### (### is ≥75%) | ### (### is ≥75%) | COc1ccccc1CN1CC2(CCN(C(=O)OC(C(F)(F)F)C(F)(F)F)CC2)C1 [Example 92, 1,1,1,3,3,3-Hexafluoropropan-2-yl 2-(2-methoxybenzyl)-2,7-diazaspiro[3.5]nonane-7-carboxylate] |

From patent US11161856B2 (H. Lundbeck A/S, priority 2017, dated 2021)
